Source: the supplement of paper PMC10627819

Tests used:
[1] = tested on: B. subtilis 168; assay: fitness (endpoint OD595 vs no drug) (fraction); higher = more growth
Method in brief: (§1)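 In 384-well plates at 37 °C, cultures began at OD595 0.01 in 30 µl, with 55 µl used for S. pneumoniae. OD595 readings every 30 min for 14 h were corrected by the first reading. Fitness divides the stationary-phase transition optical density by the robust mean of no-drug control wells. The result is capped at 1.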

[2] = tested on: S. aureus DSM 20231; assay: as above
Method in brief: as §1

[3] = tested on: S. aureus Newman; assay: as above
Method in brief: as §1

[4] = tested on: S. pneumoniae D39V; assay: as above
Method in brief: as §1

[5] = tested on: B. subtilis 168; assay: Bliss interaction score (quartile over a dose matrix) (fitness difference); higher = more antagonism (negative = synergy)
Method in brief: (§2)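 Fitness is OD595 at stationary-phase entry relative to the plate's robust no-drug mean, capped at 1. Single-drug fitness was inferred from combinations. The Bliss score is observed minus product-expected fitness, summarised by quartiles over technical, biological and donor/recipient replicates.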

[6] = tested on: S. aureus DSM 20231; assay: as above
Method in brief: as §2

[7] = tested on: S. aureus Newman; assay: as above
Method in brief: as §2

[8] = tested on: S. pneumoniae D39V; assay: as above
Method in brief: as §2

[9] = first compound 0.625 µg/mL, partner 1.25 µg/mL
[10] = first compound 0.625 µg/mL, partner 2.5 µg/mL
[11] = first compound 0.625 µg/mL, partner 5 µg/mL
[12] = first compound 1.25 µg/mL, partner 1.25 µg/mL
[13] = first compound 1.25 µg/mL, partner 2.5 µg/mL
[14] = first compound 1.25 µg/mL, partner 5 µg/mL
[15] = first compound 2.5 µg/mL, partner 1.25 µg/mL
[16] = first compound 2.5 µg/mL, partner 2.5 µg/mL
[17] = first compound 2.5 µg/mL, partner 5 µg/mL
[18] = first compound 0.625 µg/mL, partner 0.15 µg/mL
[19] = first compound 0.625 µg/mL, partner 0.3 µg/mL
[20] = first compound 0.625 µg/mL, partner 0.6 µg/mL
[21] = first compound 1.25 µg/mL, partner 0.15 µg/mL
[22] = first compound 1.25 µg/mL, partner 0.3 µg/mL
[23] = first compound 1.25 µg/mL, partner 0.6 µg/mL
[24] = first compound 2.5 µg/mL, partner 0.15 µg/mL
[25] = first compound 2.5 µg/mL, partner 0.3 µg/mL
[26] = first compound 2.5 µg/mL, partner 0.6 µg/mL
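For Bliss interaction score (quartile over a dose matrix) in this document: first quartile when negative (synergy) and third quartile when positive (antagonism).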

SMILES: Cc1ncc([N+](=O)[O-])n1CCO [Metronidazole] + CN1C2=CC=CC=C2N=C3C1=CC=CC3=O [Pyocyanin]
- fitness [1, 9]: 0.886
- fitness [1, 10]: 0.867
- fitness [1, 11]: 0.75
- fitness [1, 12]: 0.884
- fitness [1, 13]: 0.899
- fitness [1, 14]: 0.743
- fitness [1, 15]: 0.884
- fitness [1, 16]: 0.896
- fitness [1, 17]: 0.719
- fitness [2, 9]: 0.948
- fitness [2, 10]: 0.916
- fitness [2, 11]: 0.621
- fitness [2, 12]: 0.996
- fitness [2, 13]: 0.97
- fitness [2, 14]: 0.645
- fitness [2, 15]: ≥ 1
- fitness [2, 16]: 0.961
- fitness [2, 17]: 0.686
- fitness [3, 9]: 0.881
- fitness [3, 10]: 0.831
- fitness ([3]; first compound 0.781 µg/mL, partner 1.25 µg/mL, one replicate): 0.808
- fitness ([3]; first compound 0.781 µg/mL, partner 2.5 µg/mL, one replicate): 0.795
- fitness ([3]; first compound 0.781 µg/mL, partner 5 µg/mL, one replicate): 0.376
- fitness [3, 12]: 0.905
- fitness [3, 13]: 0.834
- fitness ([3]; first compound 1.562 µg/mL, partner 1.25 µg/mL, one replicate): 0.785
- fitness ([3]; first compound 1.562 µg/mL, partner 2.5 µg/mL, one replicate): 0.768
- fitness ([3]; first compound 1.562 µg/mL, partner 5 µg/mL, one replicate): 0.425
- fitness [3, 16]: 0.802
- fitness [3, 17]: 0.258
- fitness ([3]; first compound 3.124 µg/mL, partner 1.25 µg/mL, one replicate): 0.771
- fitness ([3]; first compound 3.124 µg/mL, partner 2.5 µg/mL, one replicate): 0.78
- fitness ([3]; first compound 3.124 µg/mL, partner 5 µg/mL, one replicate): 0.418
- fitness ([4]; first compound 1.073 µg/mL, partner 0.325 µg/mL): ≥ 1
- fitness ([4]; first compound 1.073 µg/mL, partner 0.65 µg/mL): ≥ 1
- fitness ([4]; first compound 1.073 µg/mL, partner 1.3 µg/mL): 0.795
- fitness ([4]; first compound 1.25 µg/mL, partner 0.325 µg/mL, one replicate): ≥ 1
- fitness ([4]; first compound 1.25 µg/mL, partner 0.65 µg/mL, one replicate): ≥ 1
- fitness ([4]; first compound 2.145 µg/mL, partner 0.325 µg/mL): 0.958
- fitness ([4]; first compound 2.145 µg/mL, partner 0.65 µg/mL): 0.98
- fitness ([4]; first compound 2.145 µg/mL, partner 1.3 µg/mL): 0.731
- fitness ([4]; first compound 2.5 µg/mL, partner 0.325 µg/mL, one replicate): ≥ 1
- fitness ([4]; first compound 2.5 µg/mL, partner 0.65 µg/mL, one replicate): ≥ 1
- fitness ([4]; first compound 4.29 µg/mL, partner 0.325 µg/mL): 0.98
- fitness ([4]; first compound 4.29 µg/mL, partner 0.65 µg/mL): 0.95
- fitness ([4]; first compound 4.29 µg/mL, partner 1.3 µg/mL): 0.815
- fitness ([4]; first compound 5 µg/mL, partner 0.325 µg/mL, one replicate): ≥ 1
- fitness ([4]; first compound 5 µg/mL, partner 0.65 µg/mL, one replicate): ≥ 1
- Bliss interaction score [5]: -0.0539
- Bliss interaction score [6]: 0.0663
- Bliss interaction score [7]: 0.0796
- Bliss interaction score [8]: 0.0391

SMILES: Cc1ncc([N+](=O)[O-])n1CCO [Metronidazole] + CN(N=O)C(=O)N[C@@H](C=O)[C@@H](O)[C@H](O)[C@H](O)CO [Streptozotocin]
- fitness ([1]; first compound 0.625 µg/mL, partner 0.15 µg/mL, one replicate): ≥ 1
- fitness ([1]; first compound 0.625 µg/mL, partner 0.3 µg/mL, one replicate): ≥ 1
- fitness ([1]; first compound 0.625 µg/mL, partner 0.6 µg/mL, one replicate): ≥ 1
- fitness ([1]; first compound 1.25 µg/mL, partner 0.15 µg/mL, one replicate): 0.91
- fitness ([1]; first compound 1.25 µg/mL, partner 0.3 µg/mL, one replicate): ≥ 1
- fitness ([1]; first compound 1.25 µg/mL, partner 0.6 µg/mL, one replicate): ≥ 1
- fitness ([1]; first compound 2.5 µg/mL, partner 0.15 µg/mL, one replicate): 0.956
- fitness ([1]; first compound 2.5 µg/mL, partner 0.3 µg/mL, one replicate): 0.941
- fitness ([1]; first compound 2.5 µg/mL, partner 0.6 µg/mL, one replicate): 0.976
- fitness [2, 18]: 0.876
- fitness [2, 19]: 0.791
- fitness [2, 20]: 0.683
- fitness [2, 21]: 0.888
- fitness [2, 22]: 0.752
- fitness [2, 23]: 0.701
- fitness [2, 24]: 0.905
- fitness [2, 25]: 0.831
- fitness [2, 26]: 0.734
- fitness [3, 18]: 0.838
- fitness [3, 19]: 0.725
- fitness [3, 20]: 0.579
- fitness ([3]; first compound 0.781 µg/mL, partner 0.15 µg/mL, one replicate): 0.907
- fitness ([3]; first compound 0.781 µg/mL, partner 0.3 µg/mL, one replicate): 0.717
- fitness ([3]; first compound 0.781 µg/mL, partner 0.6 µg/mL, one replicate): 0.523
- fitness [3, 21]: 0.833
- fitness [3, 22]: 0.742
- fitness [3, 23]: 0.568
- fitness ([3]; first compound 1.562 µg/mL, partner 0.15 µg/mL, one replicate): 0.875
- fitness ([3]; first compound 1.562 µg/mL, partner 0.3 µg/mL, one replicate): 0.722
- fitness ([3]; first compound 1.562 µg/mL, partner 0.6 µg/mL, one replicate): 0.519
- fitness [3, 24]: 0.816
- fitness [3, 25]: 0.731
- fitness [3, 26]: 0.591
- fitness ([3]; first compound 3.124 µg/mL, partner 0.15 µg/mL, one replicate): 0.796
- fitness ([3]; first compound 3.124 µg/mL, partner 0.3 µg/mL, one replicate): 0.709
- fitness ([3]; first compound 3.124 µg/mL, partner 0.6 µg/mL, one replicate): 0.505
- fitness ([4]; first compound 1.073 µg/mL, partner 1.2 µg/mL): 0.942
- fitness ([4]; first compound 1.073 µg/mL, partner 2.4 µg/mL): 0.961
- fitness ([4]; first compound 1.073 µg/mL, partner 4.8 µg/mL): 0.966
- fitness ([4]; first compound 1.25 µg/mL, partner 1.2 µg/mL, one replicate): ≥ 1
- fitness ([4]; first compound 1.25 µg/mL, partner 2.4 µg/mL, one replicate): ≥ 1
- fitness ([4]; first compound 1.25 µg/mL, partner 4.8 µg/mL, one replicate): ≥ 1
- fitness ([4]; first compound 2.145 µg/mL, partner 1.2 µg/mL): 0.934
- fitness ([4]; first compound 2.145 µg/mL, partner 2.4 µg/mL): 0.904
- fitness ([4]; first compound 2.145 µg/mL, partner 4.8 µg/mL): 0.946
- fitness ([4]; first compound 2.5 µg/mL, partner 1.2 µg/mL, one replicate): 0.98
- fitness ([4]; first compound 2.5 µg/mL, partner 2.4 µg/mL, one replicate): ≥ 1
- fitness ([4]; first compound 2.5 µg/mL, partner 4.8 µg/mL, one replicate): ≥ 1
- fitness ([4]; first compound 4.29 µg/mL, partner 1.2 µg/mL): 0.96
- fitness ([4]; first compound 4.29 µg/mL, partner 2.4 µg/mL): 0.743
- fitness ([4]; first compound 4.29 µg/mL, partner 4.8 µg/mL): 0.979
- fitness ([4]; first compound 5 µg/mL, partner 1.2 µg/mL, one replicate): 0.959
- fitness ([4]; first compound 5 µg/mL, partner 2.4 µg/mL, one replicate): ≥ 1
- fitness ([4]; first compound 5 µg/mL, partner 4.8 µg/mL, one replicate): ≥ 1
- Bliss interaction score [5]: -0.0488
- Bliss interaction score [6]: -0.0474
- Bliss interaction score [7]: 0.0626
- Bliss interaction score [8]: 0.0474
